Assay results from ChEMBL document CHEMBL1201862, “PubChem BioAssay data set” (2004).
Activity calls are given as the source filed them.

Legend:
Cytochrome P450 1A2 = molecular target: T1, Cytochrome P450 1A2 (Homo sapiens, UniProt P05177);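 further: PubChem cytochrome P450 panel assay, CYP1A2 panel member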
T1 sequence (P05177 whole entry): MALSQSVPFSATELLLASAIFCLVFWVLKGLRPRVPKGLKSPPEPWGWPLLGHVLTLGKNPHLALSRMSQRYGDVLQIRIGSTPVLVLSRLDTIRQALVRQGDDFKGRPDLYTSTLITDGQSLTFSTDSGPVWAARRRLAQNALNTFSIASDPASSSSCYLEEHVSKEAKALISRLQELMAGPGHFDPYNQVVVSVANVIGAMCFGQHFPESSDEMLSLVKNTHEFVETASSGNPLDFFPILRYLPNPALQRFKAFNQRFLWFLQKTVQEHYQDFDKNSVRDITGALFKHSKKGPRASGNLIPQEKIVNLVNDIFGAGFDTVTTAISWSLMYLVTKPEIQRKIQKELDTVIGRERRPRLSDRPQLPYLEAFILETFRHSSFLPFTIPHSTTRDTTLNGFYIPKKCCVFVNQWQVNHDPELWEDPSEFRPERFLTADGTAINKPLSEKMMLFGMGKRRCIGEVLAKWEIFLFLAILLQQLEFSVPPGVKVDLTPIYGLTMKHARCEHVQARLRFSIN

Cytochrome P450 2C9 = Cytochrome P450 2C9 (Homo sapiens, UniProt P11712)
[1] = Shn3 3'UTR reporter inhibitors, dose response, cell-based, Clone20 osteoblasts, firefly luciferase, cherry-picked (AID 624132); format: functional;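 further: firefly luciferase luminescence from reporter carrying the Shn3 3'UTR in osteoblasts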
[2] = control 3'UTR Renilla luciferase suppression, dose response, counter-screen for Shn3 inhibitor project, cell-based, Clone20-Shn3RL, cherry-picked (AID 624133); format: functional
INS1 = assay: beta cell apoptosis inhibitors, cytokine rescue, dose response, luminescence, retest (AID 449756); format: functional, cell-based; settings: Rattus norvegicus;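 further: cell death triggered by IL-1 beta plus TNF-alpha plus IFN-gamma mixture; protective hits raise ATP signal compared with cytokine alone wells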
Cytochrome P450 2D6 = Cytochrome P450 2D6 (Homo sapiens, UniProt P10635);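 further: CYP2D6 member of a cytochrome P450 panel assay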
[3] = molecular target: T2, Corticotropin-releasing factor receptor 2/Corticotropin-releasing factor-binding protein (Homo sapiens, UniProt P24387+Q13324); assay: activators of CRF receptor 2 with binding protein – uHTS hits, confirmation (AID 602473); format: functional; settings: read-out: EC50_Mean
T2 sequence (Q13324 whole entry): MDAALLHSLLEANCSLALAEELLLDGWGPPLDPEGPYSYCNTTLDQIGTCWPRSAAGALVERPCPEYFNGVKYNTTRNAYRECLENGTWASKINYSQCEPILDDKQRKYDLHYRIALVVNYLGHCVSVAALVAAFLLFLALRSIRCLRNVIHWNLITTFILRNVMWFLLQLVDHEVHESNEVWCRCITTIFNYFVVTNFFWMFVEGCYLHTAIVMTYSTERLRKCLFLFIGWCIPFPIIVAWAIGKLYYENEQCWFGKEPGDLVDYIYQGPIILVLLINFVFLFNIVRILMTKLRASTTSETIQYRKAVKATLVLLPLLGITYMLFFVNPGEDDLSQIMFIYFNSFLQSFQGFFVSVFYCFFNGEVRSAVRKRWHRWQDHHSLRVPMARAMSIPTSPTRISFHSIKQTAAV
T2 sequence (P24387 whole entry): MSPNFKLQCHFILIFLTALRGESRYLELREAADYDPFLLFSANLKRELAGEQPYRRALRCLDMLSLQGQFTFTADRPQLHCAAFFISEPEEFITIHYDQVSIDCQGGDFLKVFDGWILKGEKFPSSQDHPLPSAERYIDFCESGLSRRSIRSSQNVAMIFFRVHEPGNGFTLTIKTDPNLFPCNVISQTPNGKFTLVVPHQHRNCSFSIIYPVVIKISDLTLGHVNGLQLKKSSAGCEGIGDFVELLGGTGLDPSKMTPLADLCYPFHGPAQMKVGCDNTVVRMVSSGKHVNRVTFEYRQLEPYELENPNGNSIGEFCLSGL

[4] = Luminescence Cell-Based Dose Retest to Confirm Inhibitors of Cancer Stem Cells. [Related pubchem assays (depositor defined):AID2717, AID2721]; format: functional; settings: Homo sapiens
[5] = test system: Streptococcus sp. 'group A'; assay: growth inhibition of control SK(-) GAS strain, dose response, counter-screen for streptokinase expression inhibitor project, luminescence, kanamycin, BacTiterGlo, confirmation (AID 1900); format: functional, organism-based
Streptokinase A = molecular target: T3, Streptokinase A (Streptococcus pyogenes serotype M1, UniProt P10520); assay: S. pyogenes streptokinase expression inhibitors, potency, dose response, plasminogen activation absorbance, OD405 (AID 1914); format: functional, Streptococcus pyogenes M1 GAS;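 further: secreted streptokinase activity via plasminogen activation per viability signal from cell pellet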
T3 sequence (P10520 whole entry): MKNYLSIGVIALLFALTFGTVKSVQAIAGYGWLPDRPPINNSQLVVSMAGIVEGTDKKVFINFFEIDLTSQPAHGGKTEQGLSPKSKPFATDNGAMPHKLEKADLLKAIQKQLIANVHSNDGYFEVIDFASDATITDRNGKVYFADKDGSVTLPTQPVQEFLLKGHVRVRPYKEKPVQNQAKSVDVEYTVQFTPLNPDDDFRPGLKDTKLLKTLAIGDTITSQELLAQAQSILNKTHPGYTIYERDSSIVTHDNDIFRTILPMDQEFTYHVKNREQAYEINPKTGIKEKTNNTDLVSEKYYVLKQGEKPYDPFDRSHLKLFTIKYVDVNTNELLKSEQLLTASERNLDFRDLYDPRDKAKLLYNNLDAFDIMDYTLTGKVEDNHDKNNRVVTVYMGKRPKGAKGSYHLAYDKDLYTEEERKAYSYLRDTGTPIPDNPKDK

Streptococcus = assay: Group A Streptococcus viability loss, dose response, counter-screen for streptokinase expression inhibitor project, luminescence, BacTiterGlo (AID 1915); format: functional, organism-based;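 further: potency for reduction of bacterial viability or growth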
Cytochrome P450 2C19 = Cytochrome P450 2C19 (Homo sapiens, UniProt P33261); assay: Cytochrome panel assay with activity outcomes. Panel member name: p450-cyp2c19 Compounds with AC50 equal or less than 10 uM are considered active; format: functional
[6] = molecular target: T4, Heat shock factor protein 1 (Mus musculus, UniProt P38532); assay: inhibition of MG132-induced HSE-luciferase signal, confirmation, cell-based, NIH3T3, luminescence, dose retest (AID 2382); format: functional;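 further: NIH3T3 fibroblasts with HSF1-driven luciferase reporter stressed by proteasome inhibitor MG132; luminescence from HSF1-driven luciferase expression after 8 hours of MG132 stress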
T4 sequence (P38532 whole entry): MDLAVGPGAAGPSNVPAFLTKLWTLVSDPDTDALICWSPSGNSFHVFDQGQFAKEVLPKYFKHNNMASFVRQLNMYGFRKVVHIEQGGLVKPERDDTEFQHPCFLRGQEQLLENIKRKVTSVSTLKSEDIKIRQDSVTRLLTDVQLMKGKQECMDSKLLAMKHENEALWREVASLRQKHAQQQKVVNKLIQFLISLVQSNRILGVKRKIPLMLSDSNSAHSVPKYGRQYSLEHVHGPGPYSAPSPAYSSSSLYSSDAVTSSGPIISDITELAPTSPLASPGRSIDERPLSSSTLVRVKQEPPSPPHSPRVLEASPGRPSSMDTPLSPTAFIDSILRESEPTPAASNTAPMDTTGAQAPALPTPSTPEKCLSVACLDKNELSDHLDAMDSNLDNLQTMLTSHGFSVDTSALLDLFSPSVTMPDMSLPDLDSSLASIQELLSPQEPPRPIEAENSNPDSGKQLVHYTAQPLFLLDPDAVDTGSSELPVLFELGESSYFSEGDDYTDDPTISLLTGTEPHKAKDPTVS

Sequence of Cytochrome P450 2C19 (P33261 whole entry): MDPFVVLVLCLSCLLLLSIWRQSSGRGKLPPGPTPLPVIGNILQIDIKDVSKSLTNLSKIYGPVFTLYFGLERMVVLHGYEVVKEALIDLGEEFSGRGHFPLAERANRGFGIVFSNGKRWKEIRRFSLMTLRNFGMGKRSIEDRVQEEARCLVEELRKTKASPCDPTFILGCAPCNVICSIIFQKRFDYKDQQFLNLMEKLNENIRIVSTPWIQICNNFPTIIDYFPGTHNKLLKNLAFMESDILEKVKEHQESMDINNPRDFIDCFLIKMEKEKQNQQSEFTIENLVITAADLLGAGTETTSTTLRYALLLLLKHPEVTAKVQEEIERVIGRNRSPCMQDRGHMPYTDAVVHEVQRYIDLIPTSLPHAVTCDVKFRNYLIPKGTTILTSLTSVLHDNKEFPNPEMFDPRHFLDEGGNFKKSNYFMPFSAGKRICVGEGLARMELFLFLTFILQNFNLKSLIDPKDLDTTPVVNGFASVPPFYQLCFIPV
Sequence of Cytochrome P450 2D6 (P10635 whole entry): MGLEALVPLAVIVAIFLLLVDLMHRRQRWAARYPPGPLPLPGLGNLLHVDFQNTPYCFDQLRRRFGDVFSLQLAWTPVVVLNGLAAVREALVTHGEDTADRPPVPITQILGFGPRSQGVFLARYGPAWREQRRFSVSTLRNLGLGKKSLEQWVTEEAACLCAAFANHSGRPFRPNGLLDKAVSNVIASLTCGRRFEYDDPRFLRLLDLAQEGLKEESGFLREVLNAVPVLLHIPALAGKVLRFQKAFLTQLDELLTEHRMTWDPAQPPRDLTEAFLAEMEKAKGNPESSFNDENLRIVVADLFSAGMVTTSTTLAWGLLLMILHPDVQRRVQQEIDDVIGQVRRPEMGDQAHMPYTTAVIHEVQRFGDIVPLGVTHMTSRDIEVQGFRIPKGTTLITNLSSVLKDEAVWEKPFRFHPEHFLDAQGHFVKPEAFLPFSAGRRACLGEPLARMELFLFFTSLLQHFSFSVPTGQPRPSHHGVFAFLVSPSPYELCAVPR
Sequence of Cytochrome P450 2C9 (P11712 whole entry): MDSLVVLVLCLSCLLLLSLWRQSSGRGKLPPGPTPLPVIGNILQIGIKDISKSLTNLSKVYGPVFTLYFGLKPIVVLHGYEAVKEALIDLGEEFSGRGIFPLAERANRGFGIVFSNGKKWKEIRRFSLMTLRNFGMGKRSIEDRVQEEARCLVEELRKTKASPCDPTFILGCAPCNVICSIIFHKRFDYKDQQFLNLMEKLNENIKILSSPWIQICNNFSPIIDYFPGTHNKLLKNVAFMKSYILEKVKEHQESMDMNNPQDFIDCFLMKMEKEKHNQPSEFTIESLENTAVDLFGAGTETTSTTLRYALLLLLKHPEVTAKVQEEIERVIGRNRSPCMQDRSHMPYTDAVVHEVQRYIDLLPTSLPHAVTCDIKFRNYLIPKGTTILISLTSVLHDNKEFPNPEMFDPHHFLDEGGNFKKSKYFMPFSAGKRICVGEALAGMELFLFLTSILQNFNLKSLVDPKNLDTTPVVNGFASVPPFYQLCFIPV

## CCOc1ccc(C(Nc2ccc(C)cc2)P2(=O)OCC(C)(C)CO2)cc1 (stereo not drawn)
Cytochrome P450 1A2
  AC50: 39.8 µM (inconclusive)
Cytochrome P450 2C9
  AC50: 0.02 µM (inconclusive)

## CCOC(=O)Cc1csc(SCC(=O)c2c(N)n(CC(C)C)c(=O)n(C)c2=O)n1
[1]
  AC50: 2.35 µM (active)
[2]
  AC50: 8.62 µM (active)

## O=C(C(Sc1ccccc1)c1ccccc1)N1CCN(c2ccccc2F)CC1 (stereo not drawn)
INS1
  AC50: > 120 µM (inactive)

## O=C(c1ccco1)N1CCC2(CCN(Cc3ccncc3)CC2)CC1
Cytochrome P450 2D6
  AC50: 10 µM (inconclusive)
Cytochrome P450 1A2
  AC50: 20 µM (inconclusive)

## CCN(CC)CCOc1ccc2nc(N(C)C)sc2c1
Cytochrome P450 2D6
  AC50: 15.8 µM (inconclusive)
Cytochrome P450 1A2
  AC50: 15.8 µM (inconclusive)

## CN(C)c1ccc(C=C2SC(=S)NC2=O)cc1
[3]
  EC50: 4.78 µM (active)

## CC(C)(C)OC(=O)NCc1ccc(NC(=O)c2[nH]cnc2C(=O)NCCCCNC(=O)c2nc[nH]c2C(=O)Nc2ccc(CNC(=O)OC(C)(C)C)cc2)cc1
[4]
  AC50: 1.73 µM (active)
INS1
  AC50: 3.36 µM (active)

## N[C@H](Cc1ccccc1)c1nnn[nH]1
Cytochrome P450 1A2
  AC50: 10 µM (inconclusive)

## COc1ccc(CN2C(=O)c3ccccc3C(/C=N/OCc3ccc(Cl)cc3)C2=O)cc1 (stereo not drawn)
[5]
  EC50: 1.44 µM (active)
Streptokinase A
  EC50: > 150 µM (not active)
Streptococcus
  EC50: 8.28 µM (active)

## O=S(=O)(c1ccccc1)N1CCN=C1SCc1c(F)cccc1Cl
Streptokinase A
  EC50: 18.4 µM (active)
Streptococcus
  EC50: > 150 µM (not active)

## Cc1ccc(OP(=O)(Nc2cccc(C)c2)Oc2ccc(C)cc2)cc1
[5]
  EC50: 13 µM (active)
Streptokinase A
  EC50: 5.1 µM (active)
Streptococcus
  EC50: 28.9 µM (active)

## COc1ccccc1C(=O)NC(=S)Nc1ccc(NC(=O)c2ccco2)cc1
Streptokinase A
  EC50: > 150 µM (not active)
Streptococcus
  EC50: 114 µM (inconclusive)

## CCOC(=O)C1=C(COc2ccc(F)cc2Cl)NC(=O)NC1c1cc(C)ccc1C (stereo not drawn)
Cytochrome P450 1A2
  AC50: 17.8 µM (inconclusive)

## COc1ccc2c(C(=O)NCc3ccc4c(c3)OCO4)c(-c3ccc(S(C)(=O)=O)cc3)sc2c1
INS1
  AC50: 6.76 µM (active)

## COc1ccc(N(C)S(=O)(=O)c2cccc(C(=O)Nc3nc(C)c(C(C)=O)s3)c2)cc1
INS1
  AC50: 28.3 µM (active)

## COc1ccccc1-c1cncnc1NCc1cnc(C)cn1
Cytochrome P450 2C19; read-out: AC50
  AC50: 31.6 µM (inconclusive)
Cytochrome P450 2D6
  AC50: 39.8 µM (inconclusive)
Cytochrome P450 1A2
  AC50: 20 µM (inconclusive)

## COc1ccc(OC)c(C2N(c3cc(C)on3)C(=O)C3CCCN32)c1 (stereo not drawn)
Cytochrome P450 2C19
  AC50: inconclusive
Cytochrome P450 1A2
  AC50: 25.1 µM (inconclusive)

## NC1(C(=O)O)CCC1 [1-AMINOCYCLOBUTANE CARBOXYLIC ACID]
Cytochrome P450 1A2
  AC50: 39.8 µM (inconclusive)

## O=C(CCNS(=O)(=O)c1cccc2nsnc12)NCc1cccs1
[6]
  EC50: > 195 µM (not active)

## Cc1cccc(CCNC(=O)CC2C(=O)NCCN2Cc2ccccc2C)n1 (stereo not drawn)
[5]
  EC50: > 150 µM (not active)
Streptokinase A
  EC50: > 150 µM (not active)
Streptococcus
  EC50: > 150 µM (not active)

## COc1ccc(C)cc1NC(=O)NC1CCCc2ccccc21 (stereo not drawn)
[5]
  EC50: > 150 µM (not active)
Streptokinase A
  EC50: > 150 µM (not active)
Streptococcus
  EC50: > 150 µM (not active)

## CC1(C)NC(=O)N(CC(O)CN(c2ccccc2)S(=O)(=O)c2ccc([N+](=O)[O-])cc2)C1=O (stereo not drawn)
[6]
  EC50: > 195 µM (not active)

## CCNc1ncc2nc(-c3ccc(F)cc3)c(=O)n(CCOC)c2n1
Cytochrome P450 2D6
  AC50: 3.98 µM (inconclusive)
Cytochrome P450 1A2
  AC50: 2 µM (inconclusive)

## O=C(CC(Nc1ccc(Cl)cc1Cl)C(=O)O)c1ccccc1 (stereo not drawn)
[6]
  EC50: < 0.16 µM (active)

## NC(=O)C1CCCN(C(=O)c2ccc3oc(Cc4ccc(Cl)cc4)nc3c2)C1 (stereo not drawn)
[6]
  EC50: > 195 µM (not active)

## COc1ccc(C2=NOC(C(=O)NCCN3CCOCC3)C2)cc1 (stereo not drawn)
Cytochrome P450 1A2
  AC50: 31.6 µM (inconclusive)

## CCn1c(C(C#N)/C(=N\S(=O)(=O)c2cccs2)c2ccccc2)nc2ccccc21 (stereo not drawn)
[6]
  EC50: > 195 µM (not active)

## C(#Cc1ccccc1)CN1CCN(c2ccccn2)CC1
[6]
  EC50: > 195 µM (not active)

## Cc1ccc(S(=O)(=O)c2cc3ccccc3o/c2=N\c2ccc3c(c2)OCO3)cc1
Cytochrome P450 2D6
  AC50: 7.94 µM (inconclusive)
Cytochrome P450 1A2
  AC50: 2.82 µM (inconclusive)
Cytochrome P450 2C9
  AC50: 3.55 µM (inconclusive)

## COC(=O)c1ccccc1NC(=O)CSc1nnc(C(CO)NC(=O)c2ccccc2)n1C (stereo not drawn)
[6]
  EC50: > 195 µM (not active)

## CC1CCOC2(O1)C(=O)N(CN1CCN(c3ccccc3F)CC1)c1ccccc12 (stereo not drawn)
Cytochrome P450 2C19; read-out: AC50
  AC50: 11.2 µM (inconclusive)
Cytochrome P450 2D6
  AC50: 25.1 µM (inconclusive)
Cytochrome P450 1A2
  AC50: 2 µM (inconclusive)

## C/C(=N\O)C1CCCCC1
[6]
  EC50: > 195 µM (not active)

## COc1cc(C(=O)N2CCSCC2)ccc1OC1CCN(C(C)=O)CC1
[6]
  EC50: > 195 µM (not active)

## CC(=O)c1ccc(NC(=O)C2CCN(S(=O)(=O)c3cccc4cccnc34)CC2)cc1
[6]
  EC50: > 195 µM (not active)

## CCc1ccc(NC(=O)C2C3CCC(O3)C2C(=O)O)cc1 (stereo not drawn)
[6]
  EC50: 67 µM (active)

## COc1cccc(C(=O)Nc2ccc(NC(=O)C3CC=CCC3C(=O)O)cc2)c1 (stereo not drawn)
[6]
  EC50: > 195 µM (not active)

## Nc1nc2n(c1C(=O)c1ccccc1)CCC2
[6]
  EC50: 78 µM (active)

## CCN(c1ccccc1)S(=O)(=O)c1ccc(Cl)c(NC(=O)CSc2nnc(C)s2)c1
[6]
  EC50: > 195 µM (not active)

## CC(=O)N1c2ccc(S(=O)(=O)N3CCC(C(=O)N4CCN(c5ccccc5F)CC4)CC3)cc2CC1C (stereo not drawn)
[1]
  AC50: 5.41 µM (active)
[2]
  AC50: 2.42 µM (active)

## COc1cccc(/C=C/C(=C2/C(=O)N(c3ccccc3)N=C2C)c2ccc(Br)cc2)c1OC
[5]
  EC50: > 150 µM (not active)
Streptokinase A
  EC50: > 150 µM (not active)
Streptococcus
  EC50: > 150 µM (not active)
[4]
  AC50: > 195 µM (inactive)

## CCOC(=O)c1c(C)nc2c(c1-c1ccc(OC)cc1)C(=O)CC(C)(C)C2
Cytochrome P450 1A2
  AC50: 14.1 µM (inconclusive)
